According to patent US8012967B2, “Minor groove binders” (University of Strathclyde, priority 2006, dated 2011):
Read-outs that look alike come from different tables or passages of the source.

Experiments:
[1] = test system: Staphylococcus aureus Strain 2 (NCTC 6571); experiment: MIC, Staphylococcus aureus Strain 2; assay type: cell-based; conditions: Staphylococcus aureus, NCTC6571, read-out: Minimum inhibitory concentrations (MICs), S. aureus 2
Summary of the method: (§1)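 Broth microdilution with doubling dilutions of compound in Mueller-Hinton Broth, incubated at 37° C. MIC read from the colour pattern in the wells. Sterility and growth controls included.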

[2] = test system: Mycobacter fortuitum (NCTC 10394); experiment: MIC, Mycobacter fortuitum; assay type: cell-based; conditions: Mycolicibacterium fortuitum, NCTC10394, read-out: Minimum inhibitory concentrations (MICs), M. fortuitum
Description: (§2) The effects of compounds of the invention in relation to inhibiting the growth of various microorganisms was determined using methods known to those skilled in the art, for example in vitro methods as described in J. Med. Chem. 47, 2133-2156 (2004) and in vivo methods as described in J. Med. Microbiol. 46, 208-213 (1997), the disclosures of which documents are hereby incorporated by reference. In particular, minimum inhibitory concentrations (MICs) against microorganisms (e.g. S. Aureus, Streptococcus faecalis, Aspergillus niger, Candida albicans or Mycobacterium fortuitum) for compounds of the invention may be measured using procedures such as those described in A. J. Drummond and […] development of microbiological methods for phytochemical screening” Recent Res. Devel. […] The test wells on each 96 well microtitre plate were initially inoculated with culture medium (100 μL) using Mueller-Hinton Broth for antibacterial assays and Sabouraud Broth for antifungal assays. A solution of each test sample (100 μL) was added to one row of each plate and a series of doubling dilutions made for successive rows. Incubation was at 37° C. for antibacterial assay and 25° C. for antifungal assay. […] From the observed pattern of colour, the MIC was determined. All tests included sterility and growth controls.

[3] = test system: S. aureus LS-1; experiment: S. aureus infection model in mice, minimal effective dose; assay type: in vivo; parameters: Development of swollen joints following infection: unit not given here; conditions: for Development of swollen joints following infection: mice
Description: In relation to the methods described in J. Med. Microbiol. 46, 208-213 (1997), compounds may be evaluated in vivo using a model S. Aureus strain LS-1 which, when injected intravenously into mice, consistently causes transient bacteraemia followed by joint localization in 3-4 days. Normal control mice show inflammation of 50-60% of their joints within 3-4 days. The severity of joint sepsis was measured using calipers to determine the diameter of the affected joints. In general, five groups of mice normally having a mean weight of between 18-28 g (5 mice per group) are used for each compound tested, wherein each group is infected with S. Aureus and then provided with a certain dose of the compound to be tested (with one group acting a control).
Determination of minimal effective dose of title compound of Example 2 in S. aureus infection model.
Mice were infected with S. aureus LS-1 (50 million cfu by iv injection) and treated with graded doses of the compound of Example 2 (iv injection within 30 minutes). Each group contained 5 mice and comprised the following.
Group 1: S. aureus LS-1 only
Group 2: S. aureus LS-1 plus 60 mg/kg of the compound of Example 2
Group 3: S. aureus LS-1 plus 40 mg/kg of the compound of Example 2
Group 4: S. aureus LS-1 plus 20 mg/kg of the compound of Example 2
Group 5: S. aureus LS-1 plus 10 mg/kg of the compound of Example 2
Mice were assessed daily for weight loss, development of swollen joints and morbidity/mortality.

[4] = test system: Candida albicans (NCPF3179); experiment: MIC, Candida albicans; assay type: cell-based; conditions: Candida albicans, NCPF3179, read-out: Minimum inhibitory concentrations (MICs), C. albicans
Description: as §2

[5] = test system: Streptococcus faecalis (NCTC 775); experiment: MIC, Streptococcus faecalis; assay type: cell-based; conditions: Enterococcus faecalis, NCTC775, read-out: Minimum inhibitory concentrations (MICs), St. faecalis
Summary of the method: as §1

[6] = value in parentheses, na = not active

Cn1cc(NC(=O)c2cc(NC(=O)c3ccc(/C=C/c4cnc5ccccc5c4)cc3)cn2C)cc1C(=O)NCCN1CCOCC1 [Example 2, 1-Methyl-4-({[1-methyl-4-({4-[(E)-2-(3-quinolinyl)ethenyl]benzoyl}amino)-1H-pyrrol-2-yl]carbonyl}amino)-N-[2-(4-morpholinyl)ethyl]-1H-pyrrole-2-carboxamide]
MIC [1, 6]: 0.25 µg/mL
MIC ([1]; value outside parentheses): 0.32 µM
MIC [2, 6]: 50 µg/mL
MIC ([2]; value outside parentheses): 67 µM
Weight loss of mice after infection: Mean mouse weight (g) after ([3]; Group 2, 60 mg/kg iv, Day 2): 27.1 g
Weight loss of mice after infection: Mean mouse weight (g) after ([3]; Group 2, 60 mg/kg iv, Day 5): 26.3 g
Weight loss of mice after infection: Mean mouse weight (g) after ([3]; Group 2, 60 mg/kg iv, Day 7): 26.1 g
Mortality rate of mice following infection ([3]; Group 2, 60 mg/kg iv, day 2 post infection): 0/5
Mortality rate of mice following infection ([3]; Group 2, 60 mg/kg iv, day 3 post infection): 0/5
Mortality rate of mice following infection ([3]; Group 2, 60 mg/kg iv, day 4 post infection): 1/5
Mortality rate of mice following infection ([3]; Group 2, 60 mg/kg iv, day 5 post infection): 1/5
Mortality rate of mice following infection ([3]; Group 2, 60 mg/kg iv, day 6 post infection): 1/5
Mortality rate of mice following infection ([3]; Group 2, 60 mg/kg iv, day 7 post infection): 1/5
Weight loss of mice after infection: Mean mouse weight (g) after ([3]; Group 3, 40 mg/kg iv, Day 2): 27.0 g
Weight loss of mice after infection: Mean mouse weight (g) after ([3]; Group 3, 40 mg/kg iv, Day 5): 26.4 g
Weight loss of mice after infection: Mean mouse weight (g) after ([3]; Group 3, 40 mg/kg iv, Day 7): 26.0 g
Mortality rate of mice following infection ([3]; Group 3, 40 mg/kg iv, day 2 post infection): 0/5
Mortality rate of mice following infection ([3]; Group 3, 40 mg/kg iv, day 3 post infection): 0/5
Mortality rate of mice following infection ([3]; Group 3, 40 mg/kg iv, day 4 post infection): 0/5
Mortality rate of mice following infection ([3]; Group 3, 40 mg/kg iv, day 5 post infection): 0/5
Mortality rate of mice following infection ([3]; Group 3, 40 mg/kg iv, day 6 post infection): 0/5
Mortality rate of mice following infection ([3]; Group 3, 40 mg/kg iv, day 7 post infection): 0/5
Weight loss of mice after infection: Mean mouse weight (g) after ([3]; Group 4, 20 mg/kg iv, Day 2): 27.6 g
Weight loss of mice after infection: Mean mouse weight (g) after ([3]; Group 4, 20 mg/kg iv, Day 5): 25.4 g
Weight loss of mice after infection: Mean mouse weight (g) after ([3]; Group 4, 20 mg/kg iv, Day 7): 25.1 g
Mortality rate of mice following infection ([3]; Group 4, 20 mg/kg iv, day 2 post infection): 0/5
Mortality rate of mice following infection ([3]; Group 4, 20 mg/kg iv, day 3 post infection): 0/5
Mortality rate of mice following infection ([3]; Group 4, 20 mg/kg iv, day 4 post infection): 0/5
Mortality rate of mice following infection ([3]; Group 4, 20 mg/kg iv, day 5 post infection): 1/5
Mortality rate of mice following infection ([3]; Group 4, 20 mg/kg iv, day 6 post infection): 2/5
Mortality rate of mice following infection ([3]; Group 4, 20 mg/kg iv, day 7 post infection): 3/5
Weight loss of mice after infection: Mean mouse weight (g) after ([3]; Group 5, 10 mg/kg iv, Day 2): 26.9 g
Weight loss of mice after infection: Mean mouse weight (g) after ([3]; Group 5, 10 mg/kg iv, Day 5): 23.0 g
Weight loss of mice after infection: Mean mouse weight (g) after ([3]; Group 5, 10 mg/kg iv, Day 7): 22.6 g
Mortality rate of mice following infection ([3]; Group 5, 10 mg/kg iv, day 2 post infection): 0/5
Mortality rate of mice following infection ([3]; Group 5, 10 mg/kg iv, day 3 post infection): 0/5
Mortality rate of mice following infection ([3]; Group 5, 10 mg/kg iv, day 4 post infection): 0/5
Mortality rate of mice following infection ([3]; Group 5, 10 mg/kg iv, day 5 post infection): 0/5
Mortality rate of mice following infection ([3]; Group 5, 10 mg/kg iv, day 6 post infection): 1/5
Mortality rate of mice following infection ([3]; Group 5, 10 mg/kg iv, day 7 post infection): 2/5
Development of swollen joints following infection ([3]; count n/N, Group 2, 60 mg/kg iv, day 2 post infection): 0/20
Development of swollen joints following infection ([3]; count n/N, Group 2, 60 mg/kg iv, day 3 post infection): 0/20
Development of swollen joints following infection ([3]; count n/N, Group 2, 60 mg/kg iv, day 4 post infection): 0/16
Development of swollen joints following infection ([3]; count n/N, Group 2, 60 mg/kg iv, day 5 post infection): 0/16
Development of swollen joints following infection ([3]; count n/N, Group 2, 60 mg/kg iv, day 6 post infection): 0/16
Development of swollen joints following infection ([3]; count n/N, Group 2, 60 mg/kg iv, day 7 post infection): 0/16
Development of swollen joints following infection ([3]; count n/N, Group 3, 40 mg/kg iv, day 2 post infection): 0/20
Development of swollen joints following infection ([3]; count n/N, Group 3, 40 mg/kg iv, day 3 post infection): 0/20
Development of swollen joints following infection ([3]; count n/N, Group 3, 40 mg/kg iv, day 4 post infection): 2/20
Development of swollen joints following infection ([3]; count n/N, Group 3, 40 mg/kg iv, day 5 post infection): 3/20
Development of swollen joints following infection ([3]; count n/N, Group 3, 40 mg/kg iv, day 6 post infection): 3/20
Development of swollen joints following infection ([3]; count n/N, Group 3, 40 mg/kg iv, day 7 post infection): 3/20
Development of swollen joints following infection ([3]; count n/N, Group 4, 20 mg/kg iv, day 2 post infection): 1/20
Development of swollen joints following infection ([3]; count n/N, Group 4, 20 mg/kg iv, day 3 post infection): 1/20
Development of swollen joints following infection ([3]; count n/N, Group 4, 20 mg/kg iv, day 4 post infection): 2/20
Development of swollen joints following infection ([3]; count n/N, Group 4, 20 mg/kg iv, day 5 post infection): 1/16
Development of swollen joints following infection ([3]; count n/N, Group 4, 20 mg/kg iv, day 6 post infection): 6/20
Development of swollen joints following infection ([3]; count n/N, Group 4, 20 mg/kg iv, day 7 post infection): 4/12
Development of swollen joints following infection ([3]; count n/N, Group 5, 10 mg/kg iv, day 2 post infection): 1/20
Development of swollen joints following infection ([3]; count n/N, Group 5, 10 mg/kg iv, day 3 post infection): 1/20
Development of swollen joints following infection ([3]; count n/N, Group 5, 10 mg/kg iv, day 4 post infection): 2/20
Development of swollen joints following infection ([3]; count n/N, Group 5, 10 mg/kg iv, day 5 post infection): 2/20
Development of swollen joints following infection ([3]; count n/N, Group 5, 10 mg/kg iv, day 6 post infection): 5/16
Development of swollen joints following infection ([3]; count n/N, Group 5, 10 mg/kg iv, day 7 post infection): 4/12
Development of swollen joints following infection ([3]; figure in parentheses, Group 2, 60 mg/kg iv, day 2 post infection): 0
Development of swollen joints following infection ([3]; figure in parentheses, Group 2, 60 mg/kg iv, day 3 post infection): 0
Development of swollen joints following infection ([3]; figure in parentheses, Group 2, 60 mg/kg iv, day 4 post infection): 0
Development of swollen joints following infection ([3]; figure in parentheses, Group 2, 60 mg/kg iv, day 5 post infection): 0
Development of swollen joints following infection ([3]; figure in parentheses, Group 2, 60 mg/kg iv, day 6 post infection): 0
Development of swollen joints following infection ([3]; figure in parentheses, Group 2, 60 mg/kg iv, day 7 post infection): 0
Development of swollen joints following infection ([3]; figure in parentheses, Group 3, 40 mg/kg iv, day 2 post infection): 0
Development of swollen joints following infection ([3]; figure in parentheses, Group 3, 40 mg/kg iv, day 3 post infection): 0
Development of swollen joints following infection ([3]; figure in parentheses, Group 3, 40 mg/kg iv, day 4 post infection): 10
Development of swollen joints following infection ([3]; figure in parentheses, Group 3, 40 mg/kg iv, day 5 post infection): 15
Development of swollen joints following infection ([3]; figure in parentheses, Group 3, 40 mg/kg iv, day 6 post infection): 15
Development of swollen joints following infection ([3]; figure in parentheses, Group 3, 40 mg/kg iv, day 7 post infection): 15
Development of swollen joints following infection ([3]; figure in parentheses, Group 4, 20 mg/kg iv, day 2 post infection): 5
Development of swollen joints following infection ([3]; figure in parentheses, Group 4, 20 mg/kg iv, day 3 post infection): 5
Development of swollen joints following infection ([3]; figure in parentheses, Group 4, 20 mg/kg iv, day 4 post infection): 10
Development of swollen joints following infection ([3]; figure in parentheses, Group 4, 20 mg/kg iv, day 5 post infection): 6.3
Development of swollen joints following infection ([3]; figure in parentheses, Group 4, 20 mg/kg iv, day 6 post infection): 30
Development of swollen joints following infection ([3]; figure in parentheses, Group 4, 20 mg/kg iv, day 7 post infection): 33
Development of swollen joints following infection ([3]; figure in parentheses, Group 5, 10 mg/kg iv, day 2 post infection): 5
Development of swollen joints following infection ([3]; figure in parentheses, Group 5, 10 mg/kg iv, day 3 post infection): 5
Development of swollen joints following infection ([3]; figure in parentheses, Group 5, 10 mg/kg iv, day 4 post infection): 10
Development of swollen joints following infection ([3]; figure in parentheses, Group 5, 10 mg/kg iv, day 5 post infection): 10
Development of swollen joints following infection ([3]; figure in parentheses, Group 5, 10 mg/kg iv, day 6 post infection): 31
Development of swollen joints following infection ([3]; figure in parentheses, Group 5, 10 mg/kg iv, day 7 post infection): 33
MIC [4, 6]: 25 µg/mL
MIC ([4]; value outside parentheses): 33.5 µM
MIC [5, 6]: 25 µg/mL
MIC ([5]; value outside parentheses): 33.5 µM
